pIC50: −log10 of the molar value.
molecular target: HCV RNA-dependent RNA polymerase (NS5B) (Hepatitis C virus genotype 1b (isolate BK) (HCV), UniProt P26663); assay: RNA-Dependent RNA HCV NS5B (polymerase) Assay and IC50 Determination; format: biochemical; conditions: purified HCV NS5B polymerase, polyA:U16 substrate, 32P-UTP incorporation; read-out: IC50
Protocol: RNA-Dependent RNA HCV NS5B (polymerase) Assay and IC50 Determination.
The reaction mixtures consisted of 50 mM Hepes-KOH, pH 7.5, 5 mM MgCl2, 5 mM DTT, 2% glycerol, 0.01% Triton® X-100, 0.5 uM polyA:U16 substrate, purified HCV RNA-dependent RNA polymerase, 10 μM UTP, and ^32P-UTP (Perkin Elmer). The reaction mixtures incubated at 30° C. for 60 minutes, and then filtered through Zeta probe membrane (BioRad). The filter was washed with 5×SSC (75 mM sodium citrate, pH 7 and 750 mM NaCl), and the radiolabeled RNA products were quantitated by microbeta (Perkin Elmer). For IC50 determination, different concentrations of inhibitors were added to the polymerase reaction mixtures, and incubated at 37° C. for 60 minutes. IC50 values were determined using GraFit (Erithaus software).
Table 1 presents IC50 data obtained using the biochemical assay to test representative compounds. Data are presented as follows: “+++” means <0.1 μM; “++” means ≥0.1 μM but <1.0 μM; “+” means ≥1.0 μM.

Chain of HCV RNA-dependent RNA polymerase (NS5B) (P26663 2420-3010): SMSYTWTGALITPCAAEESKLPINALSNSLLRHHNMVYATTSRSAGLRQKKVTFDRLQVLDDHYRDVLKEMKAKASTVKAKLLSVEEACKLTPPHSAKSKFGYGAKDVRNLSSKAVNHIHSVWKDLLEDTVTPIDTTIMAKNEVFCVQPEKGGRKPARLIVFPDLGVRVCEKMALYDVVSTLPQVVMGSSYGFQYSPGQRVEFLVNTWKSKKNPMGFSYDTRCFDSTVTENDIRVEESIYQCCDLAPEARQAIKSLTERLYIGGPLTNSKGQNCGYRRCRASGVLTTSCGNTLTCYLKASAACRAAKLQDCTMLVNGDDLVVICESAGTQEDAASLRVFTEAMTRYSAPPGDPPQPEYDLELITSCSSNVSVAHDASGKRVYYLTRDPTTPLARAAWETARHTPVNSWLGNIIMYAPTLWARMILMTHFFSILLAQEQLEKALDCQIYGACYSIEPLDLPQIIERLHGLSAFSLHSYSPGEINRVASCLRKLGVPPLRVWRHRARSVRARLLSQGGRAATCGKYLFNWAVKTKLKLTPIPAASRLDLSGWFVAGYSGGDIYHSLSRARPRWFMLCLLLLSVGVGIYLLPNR

| SMILES | pIC50 |
| --- | --- |
| CNC(=O)c1c(-c2ccc(F)cc2)oc2cc(N(CCCCOCCc3ccc(C(=O)OC)cc3)S(C)(=O)=O)c(C3CC3)cc12 [Compound 13-7C, 4-[2-(4-{[5-Cyclopropyl-2-(4-fluoro-phenyl)-3-methylcarbamoyl-benzofuran-6-yl]-methanesulfonyl-amino}-butoxy)-ethyl]-benzoic Acid Methyl Ester] | 6.00 to 7.00 |
| CNC(=O)c1c(-c2ccc(F)cc2)oc2cc(N(CCOCCOCCOCCOCc3cccc(C(=O)/C=C(\O)C(=O)O)c3)S(C)(=O)=O)c(C3CC3)cc12 [Compound 02-10C, 4-[3-(2-{2-[2-(2-{[5-Cyclopropyl-2-(4-fluoro-phenyl)-3-methylcarbamoyl-benzofuran-6-yl]-methanesulfonyl-amino}-ethoxy)-ethoxy]-ethoxy}-ethoxymethyl)-phenyl]-2-hydroxy-4-oxo-but-2-enoic Acid] | 6.00 to 7.00 |
| CNC(=O)c1c(-c2ccc(F)cc2)oc2cc(N(CCOCCOCCOCCCc3cccc(C(=O)CC(=O)C(=O)O)c3)S(C)(=O)=O)c(C3CC3)cc12 [Compound 30-10, 4-[3-(3-{2-[2-(2-{[5-Cyclopropyl-2-(4-fluoro-phenyl)-3-methylcarbamoyl-benzofuran-6-yl]-methanesulfonyl-amino}-ethoxy)-ethoxy]-ethoxy}-propyl)-phenyl]-2,4-dioxo-butyric acid] | < 6.00 |
| CNC(=O)c1c(-c2ccc(F)cc2)oc2cc(N(CCOCCOCc3ccc(C(=O)OCc4ccccc4)cc3)S(C)(=O)=O)c(C3CC3)cc12 [Compound 06-8B7, 4-[2-(2-{[5-Cyclopropyl-2-(4-fluoro-phenyl)-3-methylcarbamoyl-benzofuran-6-yl]-methanesulfonyl-amino}-ethoxy)-ethoxymethyl]-benzoic Acid Benzyl Ester] | 6.00 to 7.00 |
| CCOC(=O)C(C)OCCOCCOCCN(c1cc2oc(-c3ccc(F)cc3)c(C(=O)NC)c2cc1C1CC1)S(C)(=O)=O (centres unmarked) [Compound 30-2, 2-{2-[2-(2-{[5-Cyclopropyl-2-(4-fluoro-phenyl)-3-methylcarbamoyl-benzofuran-6-yl]-methanesulfonyl-amino}-ethoxy)-ethoxy]-ethoxy}-propionic acid ethyl ester] | < 6.00 |
| CNC(=O)c1c(-c2ccc(F)cc2)oc2cc(N(CCOCCCCCOCC(=O)OC(C)(C)C)S(C)(=O)=O)c(C3CC3)cc12 [Compound 27-8A, [5-(2-{[5-Cyclopropyl-2-(4-fluoro-phenyl)-3-methylcarbamoyl-benzofuran-6-yl]-methanesulfonyl-amino}-ethoxy)-pentyloxy]-acetic Acid Tert-butyl Ester] | < 6.00 |
| CNC(=O)c1c(-c2ccc(F)cc2)oc2cc(N(CCOCCOCc3ccc(C(=O)O)c(N)c3)S(C)(=O)=O)c(C3CC3)cc12 [Compound 29-10, 2-Amino-4-[2-(2-{[5-cyclopropyl-2-(4-fluoro-phenyl)-3-methylcarbamoyl-benzofuran-6-yl]-methanesulfonyl-amino}-ethoxy)-ethoxymethyl]-benzoic Acid] | 6.00 to 7.00 |
| CNC(=O)c1c(-c2ccc(F)cc2)oc2cc(N(CCOCCOCCOCCCCCc3cccc(C(=O)CC(=O)C(=O)O)c3)S(C)(=O)=O)c(C3CC3)cc12 [Compound 30-15, 4-[3-(5-{2-[2-(2-{[5-Cyclopropyl-2-(4-fluoro-phenyl)-3-methylcarbamoyl-benzofuran-6-yl]-methanesulfonyl-amino}-ethoxy)-ethoxy]-ethoxy}-pentyl)-phenyl]-2,4-dioxo-butyric acid] | < 6.00 |
| CNC(=O)c1c(-c2ccc(F)cc2)oc2cc(N(CCOCCOCc3ccc(C(=O)OCC(N)=O)cc3)S(C)(=O)=O)c(C3CC3)cc12 [Compound 06-8B5, 4-[2-(2-{[5-Cyclopropyl-2-(4-fluoro-phenyl)-3-methylcarbamoyl-benzofuran-6-yl]-methanesulfonyl-amino}-ethoxy)-ethoxymethyl]-benzoic Acid Carbamoylmethyl Ester] | 6.00 to 7.00 |
| CNC(=O)c1c(-c2ccc(F)cc2)oc2cc(N(CCOCCOCc3ccc(C(=O)O)c4ccccc34)S(C)(=O)=O)c(C3CC3)cc12 [Compound 20-8, 4-[2-(2-{[5-Cyclopropyl-2-(4-fluoro-phenyl)-3-methylcarbamoyl-benzofuran-6-yl]-methanesulfonyl-amino}-ethoxy)-ethoxymethyl]-naphthalene-1-carboxylic Acid] | > 7.00 |
| CNC(=O)c1c(-c2ccc(F)cc2)oc2cc(N(CCOCCOCCCCc3cccc(C(=O)CC(=O)C(=O)O)c3)S(C)(=O)=O)c(C3CC3)cc12 [Compound 30-12, 4-(3-{4-[2-(2-{[5-Cyclopropyl-2-(4-fluoro-phenyl)-3-methylcarbamoyl-benzofuran-6-yl]-methanesulfonyl-amino}-ethoxy)-ethoxy]-butyl}-phenyl)-2,4-dioxo-butyric acid] | < 6.00 |
| CNC(=O)c1c(-c2ccc(F)cc2)oc2cc(N(CCOCCOCCOC(C)(C)C(=O)NO)S(C)(=O)=O)c(C3CC3)cc12 [Compound 26-8B, 5-Cyclopropyl-2-(4-fluoro-phenyl)-6-[(2-{2-[2-(1-hydroxycarbamoyl-1-methyl-ethoxy)-ethoxy]-ethoxy}-ethyl)-methanesulfonyl-amino]-benzofuran-3-carboxylic Acid Methylamide] | < 6.00 |
| CNC(=O)c1c(-c2ccc(F)cc2)oc2cc(N(CC(=O)NCC(=O)NCCCC(C)C(=O)OC)S(C)(=O)=O)c(C3CC3)cc12 (centres unmarked) [Compound 10-3B, 5-[2-(2-{[5-Cyclopropyl-2-(4-fluoro-phenyl)-3-methylcarbamoyl-benzofuran-6-yl]-methanesulfonyl-amino}-acetylamino)-acetylamino]-2-methyl-pentanoic Acid Methyl Ester] | < 6.00 |
| CNC(=O)c1c(-c2ccc(F)cc2)oc2cc(N(CCOCCOCc3ccc(OC)c(C(=O)OC)c3)S(C)(=O)=O)c(C3CC3)cc12 [Compound 30-11, 5-[2-(2-{[5-Cyclopropyl-2-(4-fluoro-phenyl)-3-methylcarbamoyl-benzofuran-6-yl]-methanesulfonyl-amino}-ethoxy)-ethoxymethyl]-2-methoxy-benzoic acid methyl ester] | < 6.00 |
| CCOC(=O)c1cccc(CCOCCOCCN(c2cc3oc(-c4ccc(F)cc4)c(C(=O)NC)c3cc2C2CC2)S(C)(=O)=O)c1 [Compound 11-5B, 3-{2-[2-(2-{[5-Cyclopropyl-2-(4-fluoro-phenyl)-3-methylcarbamoyl-benzofuran-6-yl]-methanesulfonyl-amino}-ethoxy)-ethoxy]-ethyl}-benzoic Acid Ethyl Ester] | < 6.00 |
| CCOC(=O)c1cc(COCCOCCN(c2cc3oc(-c4ccc(F)cc4)c(C(=O)NC)c3cc2C2CC2)S(C)(=O)=O)ccc1F [Compound 30-14, 5-[2-(2-{[5-Cyclopropyl-2-(4-fluoro-phenyl)-3-methylcarbamoyl-benzofuran-6-yl]-methanesulfonyl-amino}-ethoxy)-ethoxymethyl]-2-fluoro-benzoic acid ethyl ester] | < 6.00 |
| CNC(=O)c1c(-c2ccc(F)cc2)oc2cc(N(CCOCCOCCOCc3ccc(C(=O)/C=C(\O)C(=O)O)cc3)S(C)(=O)=O)c(C3CC3)cc12 [Compound 02-10G, 4-(4-{2-[2-(2-{[5-Cyclopropyl-2-(4-fluoro-phenyl)-3-methylcarbamoyl-benzofuran-6-yl]-methanesulfonyl-amino}-ethoxy)-ethoxy]-ethoxymethyl}-phenyl)-2-hydroxy-4-oxo-but-2-enoic Acid] | < 6.00 |
| CNC(=O)c1c(-c2ccc(F)cc2)oc2cc(N(CCOCCOCCOCc3ccccc3C(=O)O)S(C)(=O)=O)c(C3CC3)cc12 [Compound 06-7D, 2-{2-[2-(2-{[5-Cyclopropyl-2-(4-fluoro-phenyl)-3-methylcarbamoyl-benzofuran-6-yl]-methanesulfonyl-amino}-ethoxy)-ethoxy]-ethoxymethyl}-benzoic Acid] | 6.00 to 7.00 |
| CNC(=O)c1c(-c2ccc(F)cc2)oc2cc(N(CCOCCOCc3ccc(C(=O)OC)c(C)c3)S(C)(=O)=O)c(C3CC3)cc12 [Compound 18-9A, 4-[2-(2-{[5-Cyclopropyl-2-(4-fluoro-phenyl)-3-methylcarbamoyl-benzofuran-6-yl]-methanesulfonyl-amino}-ethoxy)-ethoxymethyl]-2-methyl-benzoic Acid Methyl Ester] | < 6.00 |
| CNC(=O)c1c(-c2ccc(F)cc2)oc2cc(N(CCOCCOCCc3ccc(C(=O)O)cc3)S(C)(=O)=O)c(C3CC3)cc12 [Compound 11-6C, 4-{2-[2-(2-{[5-Cyclopropyl-2-(4-fluoro-phenyl)-3-methylcarbamoyl-benzofuran-6-yl]-methanesulfonyl-amino}-ethoxy)-ethoxy]-ethyl}-benzoic Acid] | 6.00 to 7.00 |
| CNC(=O)c1c(-c2ccc(F)cc2)oc2cc(N(CCOCCOCCc3ccccc3C(=O)OC)S(C)(=O)=O)c(C3CC3)cc12 [Compound 11-5A, 2-{2-[2-(2-{[5-Cyclopropyl-2-(4-fluoro-phenyl)-3-methylcarbamoyl-benzofuran-6-yl]-methanesulfonyl-amino}-ethoxy)-ethoxy]-ethyl}-benzoic Acid Methyl Ester] | 6.00 to 7.00 |
| CNC(=O)c1c(-c2ccc(F)cc2)oc2cc(N(CCOCCOCc3ccc(Cl)nc3)S(C)(=O)=O)c(C3CC3)cc12 [Compound 19-8B] | > 7.00 |
| CNC(=O)c1c(-c2ccc(F)cc2)oc2cc(N(CC(=O)NCC(=O)NCCCCC(=O)OC)S(C)(=O)=O)c(C3CC3)cc12 [Compound 10-3A, 5-[2-(2-{[5-Cyclopropyl-2-(4-fluoro-phenyl)-3-methylcarbamoyl-benzofuran-6-yl]-methanesulfonyl-amino}-acetylamino)-acetylamino]-pentanoic Acid Methyl Ester] | < 6.00 |
